{"source": "ChEMBL document CHEMBL5528053", "about": "“Discovery of Novel Isoquinoline Analogues as Dual Tubulin Polymerization/V-ATPase Inhibitors with Immunogenic Cell Death Induction” (J Med Chem, 2024)", "key": {"PC-3 [1]": {"tested_on": "PC-3", "assay": "Induction of immunogenic cell death in human PC-3 cells assessed as increase in CRT translocation to cell surface at 200 nM measured after 12 hrs in presence of TUDCA by DAPI staining based analysis", "format": "functional"}, "PC-3 [2]": {"tested_on": "PC-3", "assay": "Inhibition of V-ATPase activity in human PC-3 cells at 50 nM measured after 24 hrs by colorimetric assay relative to control", "format": "cell-based"}, "PC-3 [3]": {"tested_on": "PC-3", "assay": "Induction of apoptosis in human PC-3 cells assessed as late apoptotic cells at 200 nM measured after 24 hrs by annexin V-FITC and PI staining based flow cytometry analysis (reference value: 2.37%)", "format": "functional"}, "PC-3 [4]": {"tested_on": "PC-3", "assay": "Induction of immunogenic cell death in human PC-3 cells assessed as increase in HMGB1 release from nuclei at 50 to 200 nM measured after 24 hrs by DAPI staining based analysis", "format": "functional", "conditions": "dose 50-200 nM"}, "PC-3 [5]": {"tested_on": "PC-3", "assay": "Induction of cell cycle arrest in human PC-3 cells assessed as accumulation of cells at G1 phase at 200 nM incubated for 24 hrs by flow cytometry analysis (reference value: 49.4%)", "format": "functional"}, "[6]": {"assay": "Binding affinity to porcine brain tubulin polymerization assessed as dissociation constant measured after 20 mins by fluorescence based analysis", "format": "tissue-based, Sus scrofa"}, "PC-3 [7]": {"tested_on": "PC-3", "assay": "Induction of apoptosis in human PC-3 cells assessed as early apoptotic cells at 50 nM measured after 24 hrs by annexin V-FITC and PI staining based flow cytometry analysis (reference value: 1.03%)", "format": "functional"}, "[8]": {"assay": "Toxicity in ICR mouse assessed as effect on BUN level at 10 mg/kg, ip measured for 14 days", "format": "organism-based", "conditions": "in vivo, 336 h, time 14 day"}, "PC-3 [9]": {"tested_on": "PC-3", "assay": "Induction of apoptosis in human PC-3 cells assessed as viable cells at 50 nM measured after 24 hrs by annexin V-FITC and PI staining based flow cytometry analysis (reference value: 90.6%)", "format": "functional", "conditions": "read-out: Activity"}, "PC-3 [10]": {"tested_on": "PC-3", "assay": "Induction of apoptosis in human PC-3 cells assessed as early apoptotic cells at 200 nM measured after 24 hrs by annexin V-FITC and PI staining based flow cytometry analysis (reference value: 1.03%)", "format": "functional"}, "[11]": {"assay": "Toxicity in ICR mouse assessed as effect on WBC count at 10 mg/kg, ip measured for 14 days", "format": "organism-based", "conditions": "in vivo, 336 h, time 14 day"}, "PC-3 [12]": {"tested_on": "PC-3", "assay": "Inhibition of V-ATPase activity in human PC-3 cells at 200 nM measured after 24 hrs by colorimetric assay relative to control", "format": "cell-based"}, "PC-3 [13]": {"tested_on": "PC-3", "assay": "Induction of immunogenic cell death in human PC-3 cells assessed as increase in CRT translocation to cell surface at 200 nM measured after 12 hrs in presence of NAC by DAPI staining based analysis", "format": "functional"}, "[14]": {"assay": "Antitumor immunity against mouse RM1 cells homografted in C57BL/6 mouse model assessed as increase in tumor infiltrating CD3+CD8+T cells (CTLs) at 10 mg/kg, iv administered every two days for 14 days by flow cytometry analysis (reference value: 0.89%)", "format": "functional", "conditions": "time 14 day"}, "PC-3 [15]": {"tested_on": "PC-3", "assay": "Induction of endoplasmic reticulum (ER) stress in human PC-3 cells assessed as upregulation of eIF2 alpha phosphorylation at […] residues at 50 to 200 nM measured after 24 hrs by Western blot analysis", "format": "functional, cell-based", "conditions": "dose 50-200 nM"}, "[16]": {"assay": "Antitumor activity against mouse RM1 cells xenografted in immunocompetent […] mouse model assessed as tumor growth inhibition at 10 mg/kg, iv measured every two days for 14 days relative to control", "format": "functional", "conditions": "RM1, 336 h, time 14 day, read-out: TGI"}, "PC-3 [17]": {"tested_on": "PC-3", "assay": "Induction of apoptosis in human PC-3 cells assessed as downregulation of bcl-2 level at 50 to 200 nM incubated for 24 hrs by Western blot analysis", "format": "functional, cell-based", "conditions": "dose 50-200 nM"}, "PC-3 [18]": {"tested_on": "PC-3", "assay": "Induction of apoptosis in human PC-3 cells assessed as increase in ADP-ribose level at 50 to 200 nM incubated for 24 hrs by Western blot analysis", "format": "functional, cell-based", "conditions": "dose 50-200 nM"}, "A549": {"tested_on": "A549", "assay": "Inhibition of cell migration in human A549 cells at upto 100 nM incubated for 24 hrs by inverted fluorescence microscope analysis", "format": "functional, cell-based"}, "PC-3 [19]": {"tested_on": "PC-3", "assay": "Inhibition of V-ATPase activity in human PC-3 cells measured after 24 hrs by colorimetric assay", "format": "cell-based", "conditions": "dose 50-800 nM"}, "RM1 [20]": {"tested_on": "RM1", "assay": "Antitumor immunity against mouse RM1 cells homografted in C57BL/6 mouse model assessed as increase in activation of tumor infiltrating lymphocytes in spleen at 5 to 10 mg/kg, iv administered every two days for 14 days by flow cytometry analysis", "format": "functional, organism-based", "conditions": "dose 5-10 mg/kg, time 14.0 day"}, "[21]": {"assay": "Toxicity in ICR mouse assessed as effect on heart at 10 mg/kg, ip measured for 14 days by H and E staining based analysis", "format": "organism-based", "conditions": "in vivo, 336 h, time 14 day"}, "PC-3 [22]": {"tested_on": "PC-3", "assay": "Induction of intracellular ROS generation in human PC-3 cells incubated for 24 hrs by DCFH-DA staining based confocal microscopy based analysis", "format": "functional, cell-based", "conditions": "dose 50-200 nM"}, "PC-3 [23]": {"tested_on": "PC-3", "assay": "Inhibition of V-ATPase activity in human PC-3 cells at 800 nM measured after 24 hrs by colorimetric assay relative to control", "format": "cell-based"}, "PC-3 [24]": {"tested_on": "PC-3", "assay": "Induction of apoptosis in human PC-3 cells measured after 24 hrs by annexin V-FITC and PI staining based flow cytometry analysis", "format": "functional, cell-based", "conditions": "dose 50-200 nM"}, "[25]": {"assay": "Antitumor immunity against mouse RM1 cells homografted in C57BL/6 mouse model assessed as increase in tumor infiltrating CD3+CD8+T cells (CTLs) at 5 mg/kg, iv administered every two days for 14 days by flow cytometry analysis (reference value: 0.89%)", "format": "functional", "conditions": "time 14 day"}, "[26]": {"assay": "Antitumor immunity against mouse RM1 cells homografted in C57BL/6 mouse model assessed as increase in tumor infiltrating lymphocytes at 5 mg/kg, iv administered every two days for 14 days by flow cytometry analysis (reference value: 5.26%)", "format": "functional", "conditions": "time 14 day"}, "PC-3 [27]": {"tested_on": "PC-3", "assay": "Induction of apoptosis in human PC-3 cells assessed as late apoptotic cells at 50 nM measured after 24 hrs by annexin V-FITC and PI staining based flow cytometry analysis (reference value: 2.37%)", "format": "functional"}, "RM1 [28]": {"tested_on": "RM1", "assay": "Antitumor immunity against mouse RM1 cells homografted in C57BL/6 mouse model assessed as increase in tumor infiltrating CD3+CD8+T cells (CTLs) in spleen at 5 to 10 mg/kg, iv administered every two days for 14 days by flow cytometry analysis", "format": "functional, organism-based", "conditions": "dose 5-10 mg/kg, time 14.0 day"}, "PC-3 [29]": {"tested_on": "PC-3", "assay": "Induction of endoplasmic reticulum (ER) stress in human PC-3 cells assessed as upregulation of CHOP phosphorylation level at 50 to 200 nM measured after 24 hrs by Western blot analysis", "format": "functional, cell-based", "conditions": "dose 50-200 nM"}, "[30]": {"assay": "Antitumor immunity against mouse RM1 cells homografted in C57BL/6 mouse model assessed as increase in tumor infiltrating lymphocytes at 10 mg/kg, iv administered every two days for 14 days by flow cytometry analysis (reference value: 5.26%)", "format": "functional", "conditions": "time 14 day"}, "PC-3 [31]": {"tested_on": "PC-3", "assay": "Inhibition of autophagy in human PC-3 cells assessed as increase in number of autophagosomes at 50 to 200 uM measured after 3 hrs by immunofluorescence imaging based analysis", "format": "functional, cell-based", "conditions": "dose 50-200 µM"}, "PC-3 [32]": {"tested_on": "PC-3", "assay": "Inhibition of V-ATPase activity in human PC-3 cells at 400 nM measured after 24 hrs by colorimetric assay relative to control", "format": "cell-based"}, "PC-3 [33]": {"tested_on": "PC-3", "assay": "Induction of cell cycle arrest in human PC-3 cells assessed as reduction in cyclin B1 at 50 to 200 nM incubated for 24 hrs by DAPI staining based analysis", "format": "functional", "conditions": "dose 50-200 nM"}, "[34]": {"assay": "Antitumor activity against mouse RM1 cells xenografted in immunocompetent […] mouse model assessed as tumor growth inhibition at 5 mg/kg, iv measured every two days for 14 days relative to control", "format": "functional", "conditions": "RM1, 336 h, time 14 day, read-out: TGI"}}, "note": "Active and inactive are the calls of the source. The calls are words filed in the database; no cut-off is given here."}
{"smiles": "COc1cc(-c2nc(C(N)=O)cc3cc4c(cc23)OCCO4)cc(Br)c1OC", "values": [{"measurement": "Activity", "setting": "PC-3 [1]", "result": "inactive"}, {"measurement": "inhibition", "setting": "PC-3 [2]", "result": 15.8, "unit": "%"}, {"measurement": "Activity", "setting": "PC-3 [3]", "result": 19.4, "unit": "%"}, {"measurement": "Activity", "setting": "PC-3 [4]", "result": "Active"}, {"measurement": "Activity", "setting": "PC-3 [5]", "result": 17.9, "unit": "%"}, {"measurement": "Kd", "setting": "[6]", "result": 6.56, "unit": "µM"}, {"measurement": "Activity", "setting": "PC-3 [7]", "result": 1.93, "unit": "%"}, {"measurement": "Activity", "setting": "[8]", "result": "Non-Toxic"}, {"measurement": "viability at 0.05 µM", "setting": "PC-3 [9]", "result": 87.6, "unit": "%"}, {"measurement": "Activity", "setting": "PC-3 [10]", "result": 22.7, "unit": "%"}, {"measurement": "Activity", "setting": "[11]", "result": "Non-Toxic"}, {"measurement": "inhibition", "setting": "PC-3 [12]", "result": 36.7, "unit": "%"}, {"measurement": "Activity", "setting": "PC-3 [13]", "result": "inactive"}, {"measurement": "Activity", "setting": "[14]", "result": 2.27, "unit": "%"}, {"measurement": "Activity", "setting": "PC-3 [15]", "result": "Active"}, {"measurement": "inhibition in vivo at 10 mg/kg", "setting": "[16]", "result": 70.2, "unit": "%"}, {"measurement": "Activity", "setting": "PC-3 [17]", "result": "Active"}, {"measurement": "Activity", "setting": "PC-3 [18]", "result": "Active"}, {"measurement": "inhibition", "setting": "A549", "result": "Active"}, {"measurement": "inhibition", "setting": "PC-3 [19]", "result": "Dose-Dependent Effect"}, {"measurement": "Activity", "setting": "RM1 [20]", "result": "Active"}, {"measurement": "Activity", "setting": "[21]", "result": "Non-Toxic"}, {"measurement": "Activity", "setting": "PC-3 [22]", "result": "Dose-Dependent Effect"}, {"measurement": "inhibition", "setting": "PC-3 [23]", "result": 77.4, "unit": "%"}, {"measurement": "Activity", "setting": "PC-3 [24]", "result": "Dose-Dependent Effect"}, {"measurement": "Activity", "setting": "[25]", "result": 1.59, "unit": "%"}, {"measurement": "Activity", "setting": "[26]", "result": 7.01, "unit": "%"}, {"measurement": "Activity", "setting": "PC-3 [27]", "result": 3.51, "unit": "%"}, {"measurement": "Activity", "setting": "RM1 [28]", "result": "Active"}, {"measurement": "Activity", "setting": "PC-3 [29]", "result": "Active"}, {"measurement": "Activity", "setting": "[30]", "result": 8.03, "unit": "%"}, {"measurement": "inhibition", "setting": "PC-3 [31]", "result": "Active"}, {"measurement": "inhibition", "setting": "PC-3 [32]", "result": 60, "unit": "%"}, {"measurement": "Activity", "setting": "PC-3 [33]", "result": "Active"}, {"measurement": "inhibition in vivo at 5 mg/kg", "setting": "[34]", "result": 54.6, "unit": "%"}]}
